Consider 20 compounds from paper PMC4194234 (Psychopharmacology, 2014).

Structures are written as SMILES. Where two headings read alike, the source gives them in different places.

The target in test [1] is T1, Norepinephrine Transporter (NET) (Rattus norvegicus, UniProt Q63380). As to the kind of experiment: [3H]NE uptake inhibition, rat brain synaptosomes. The test is classed as biochemical.
For test [2], the target named is T2, 5-HT2A receptor (Homo sapiens, UniProt P28223). Nature of the test: cell-based. The format is cell-based. The following applies: for Emax: HEK293, read-out: 5-HT2A Emax; for 5-HT2A agonist activity in calcium mobilization assay (in words) / 5-HT2A Emax: HEK293; for 5-HT2A Emax: calcium mobilization, mean ± SEM, three experiments in duplicate.
Target sequence in this assay (P28223 whole entry): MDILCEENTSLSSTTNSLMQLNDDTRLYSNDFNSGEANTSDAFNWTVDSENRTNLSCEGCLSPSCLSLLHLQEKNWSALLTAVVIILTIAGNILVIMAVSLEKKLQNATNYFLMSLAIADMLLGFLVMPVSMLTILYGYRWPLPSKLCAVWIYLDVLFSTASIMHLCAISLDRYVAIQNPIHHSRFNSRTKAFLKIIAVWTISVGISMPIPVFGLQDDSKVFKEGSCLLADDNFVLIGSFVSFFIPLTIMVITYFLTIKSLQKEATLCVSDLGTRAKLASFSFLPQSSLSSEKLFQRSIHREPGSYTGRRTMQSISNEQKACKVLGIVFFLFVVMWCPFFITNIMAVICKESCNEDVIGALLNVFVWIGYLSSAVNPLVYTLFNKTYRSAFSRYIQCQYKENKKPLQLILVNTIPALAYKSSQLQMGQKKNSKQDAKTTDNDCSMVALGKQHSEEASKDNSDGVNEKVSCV
The test system of test [3] is humans. The following applies: tabulated from anecdotal reports in TiHKAL, ref Shulgin and Shulgin 1997; cited from earlier work.
Test [4] has as its target T3, Dopamine Transporter (DAT) (Rattus norvegicus, UniProt P23977). Nature of the test: [3H]DA uptake inhibition, rat striatum synaptosomes.
Test [5] deals with T4, SERT (Rattus norvegicus, UniProt P31652). As to the kind of experiment: [3H]5-HT uptake inhibition, rat brain synaptosomes. The following applies: for 5-HT uptake inhibitor activity at SERT (in words): rat brain synaptosomes.
T4 sequence (P31652 whole entry): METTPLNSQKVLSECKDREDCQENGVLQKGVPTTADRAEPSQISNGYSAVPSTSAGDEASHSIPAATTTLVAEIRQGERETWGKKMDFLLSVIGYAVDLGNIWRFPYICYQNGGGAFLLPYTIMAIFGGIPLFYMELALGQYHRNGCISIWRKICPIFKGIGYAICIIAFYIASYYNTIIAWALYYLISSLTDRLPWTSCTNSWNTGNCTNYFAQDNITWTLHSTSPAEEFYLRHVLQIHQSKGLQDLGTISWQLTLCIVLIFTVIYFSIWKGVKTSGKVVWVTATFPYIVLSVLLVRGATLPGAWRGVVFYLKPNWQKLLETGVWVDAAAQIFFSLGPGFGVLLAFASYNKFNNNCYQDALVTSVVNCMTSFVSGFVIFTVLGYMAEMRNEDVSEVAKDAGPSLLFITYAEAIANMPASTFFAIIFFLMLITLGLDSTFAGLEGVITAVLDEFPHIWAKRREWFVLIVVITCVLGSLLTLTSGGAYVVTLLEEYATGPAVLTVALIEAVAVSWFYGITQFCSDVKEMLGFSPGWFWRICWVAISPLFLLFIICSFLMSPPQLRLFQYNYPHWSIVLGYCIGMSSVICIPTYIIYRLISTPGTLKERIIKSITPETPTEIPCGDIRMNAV
In test [6] the target is T2, 5-HT2A receptor. As to the kind of experiment: cell-based. The note with it: for 5-HT2A β-arrestin Emax: β-arrestin recruitment, mean ± SEM, three experiments in duplicate; for 5-HT2A β-arrestin Emax / 5-HT2A β-arrestin recruitment activity (in words): CHOk1; for 5-HT2A β-arrestin recruitment activity (in words): screened at 10 µM; for Emax: CHO-K1, read-out: 5-HT2A β-arrestin Emax. The format is cell-based. On the technique in general: Recruitment of arrestin is a read-out of receptor activation apart from second messengers.
Target sequence in this assay (P28223 whole entry): as the sequence (P28223 whole entry) above
Target sequence in this assay (P32121 whole entry, further chain): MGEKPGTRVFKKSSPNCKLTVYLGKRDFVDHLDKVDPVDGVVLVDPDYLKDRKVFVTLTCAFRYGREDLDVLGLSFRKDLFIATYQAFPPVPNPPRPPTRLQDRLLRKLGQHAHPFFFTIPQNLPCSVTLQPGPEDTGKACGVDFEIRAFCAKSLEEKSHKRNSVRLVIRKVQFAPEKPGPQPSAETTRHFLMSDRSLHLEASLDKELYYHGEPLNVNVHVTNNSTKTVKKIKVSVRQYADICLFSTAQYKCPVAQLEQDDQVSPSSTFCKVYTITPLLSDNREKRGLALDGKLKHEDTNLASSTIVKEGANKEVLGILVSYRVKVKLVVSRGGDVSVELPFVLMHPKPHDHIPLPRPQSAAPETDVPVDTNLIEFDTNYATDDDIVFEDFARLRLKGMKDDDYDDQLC

The target of test [7] is T5, 5-HT1A receptor (Homo sapiens, UniProt P08908).
T5 sequence (P08908 1-422): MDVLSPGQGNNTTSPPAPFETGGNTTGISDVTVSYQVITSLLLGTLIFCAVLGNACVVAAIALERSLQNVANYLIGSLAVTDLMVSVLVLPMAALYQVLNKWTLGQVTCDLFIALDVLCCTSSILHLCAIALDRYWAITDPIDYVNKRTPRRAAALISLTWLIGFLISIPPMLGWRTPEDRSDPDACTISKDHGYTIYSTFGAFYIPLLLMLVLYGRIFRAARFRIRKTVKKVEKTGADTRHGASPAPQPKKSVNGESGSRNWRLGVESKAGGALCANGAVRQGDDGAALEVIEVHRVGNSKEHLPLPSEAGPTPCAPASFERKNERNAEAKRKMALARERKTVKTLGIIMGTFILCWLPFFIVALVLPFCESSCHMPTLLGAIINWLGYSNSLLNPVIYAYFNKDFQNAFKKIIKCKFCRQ
As to the kind of experiment: 5-HT1A calcium mobilization assay in Gα16-CHO cells. The test is classed as cell-based. The following applies: for 5-HT1A Emax: calcium mobilization, Gα16-CHO, mean ± SEM, three experiments in duplicate. In general terms: A change in cytosolic calcium serves as a functional read-out for many receptors and channels.

Test [8] concerns the target T4, SERT. As to the kind of experiment: SERT-mediated release, rat brain synaptosomes. The following applies: for 5-HT releasing activity at SERT (in words): rat brain synaptosomes.
The target in test [9] is T3, Dopamine Transporter (DAT). Nature of the test: DAT-mediated release, rat striatum synaptosomes.
Test [10] addresses T1, Norepinephrine Transporter (NET). Nature of the test: NET-mediated release, rat brain synaptosomes. The format is biochemical.

T3 sequence (P23977 whole entry): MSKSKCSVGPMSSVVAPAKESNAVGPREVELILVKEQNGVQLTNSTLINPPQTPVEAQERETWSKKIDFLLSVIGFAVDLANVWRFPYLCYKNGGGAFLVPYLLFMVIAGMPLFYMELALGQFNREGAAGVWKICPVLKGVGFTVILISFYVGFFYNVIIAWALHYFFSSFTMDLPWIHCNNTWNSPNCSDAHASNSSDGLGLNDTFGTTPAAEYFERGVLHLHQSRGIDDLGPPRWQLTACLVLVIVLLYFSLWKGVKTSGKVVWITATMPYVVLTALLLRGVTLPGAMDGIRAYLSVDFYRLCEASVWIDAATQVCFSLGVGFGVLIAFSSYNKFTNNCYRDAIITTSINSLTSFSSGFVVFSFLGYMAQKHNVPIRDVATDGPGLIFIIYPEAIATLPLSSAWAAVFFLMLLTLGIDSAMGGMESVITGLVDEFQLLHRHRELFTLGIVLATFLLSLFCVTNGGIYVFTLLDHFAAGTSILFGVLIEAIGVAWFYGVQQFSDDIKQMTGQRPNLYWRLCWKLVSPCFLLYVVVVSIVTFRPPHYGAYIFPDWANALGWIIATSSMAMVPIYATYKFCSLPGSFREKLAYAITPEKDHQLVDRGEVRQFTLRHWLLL
T1 sequence (Q63380 1-617): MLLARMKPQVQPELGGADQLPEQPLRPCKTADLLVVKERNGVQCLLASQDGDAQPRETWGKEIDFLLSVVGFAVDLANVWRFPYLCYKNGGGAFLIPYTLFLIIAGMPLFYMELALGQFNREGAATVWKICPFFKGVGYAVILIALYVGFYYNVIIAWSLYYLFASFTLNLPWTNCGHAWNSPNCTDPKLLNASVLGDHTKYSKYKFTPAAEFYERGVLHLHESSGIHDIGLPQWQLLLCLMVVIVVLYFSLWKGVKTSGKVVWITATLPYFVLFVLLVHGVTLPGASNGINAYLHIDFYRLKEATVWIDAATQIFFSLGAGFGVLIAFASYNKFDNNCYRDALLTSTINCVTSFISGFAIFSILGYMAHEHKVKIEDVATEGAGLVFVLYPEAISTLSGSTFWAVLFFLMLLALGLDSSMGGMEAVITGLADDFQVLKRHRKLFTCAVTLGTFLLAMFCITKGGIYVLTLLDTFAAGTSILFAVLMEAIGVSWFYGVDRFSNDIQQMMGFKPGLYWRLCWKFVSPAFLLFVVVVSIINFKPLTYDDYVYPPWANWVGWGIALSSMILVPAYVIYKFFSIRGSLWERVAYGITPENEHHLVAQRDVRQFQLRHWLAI

Broadly, the IC50 is the concentration at which inhibition is half-maximal. Lower therefore signals inhibition by little substance. For orientation: Emax means the greatest response seen or fitted, relative to the assay's reference. In the case of `CN(C)CCc1c[nH]c2cccc(O)c12` [Compound 24, Psilocin], the IC50 in test [1] was > 10 µM; in [4], > 10 µM; in test [5], 0.662 ± 0.041 µM. Also, the Emax in test [2] is 76 ± 7%. The “Psychoactive Effects” value in [3] is “Very visual, lots of colors, better at night”.
As for `CCN(CC)CCc1c[nH]c2ccc(OC)cc12` [Compound 26], in test [2], the “5-HT2A agonist activity in calcium mobilization assay (in words)” value is “low nanomolar potency” and the “5-HT2A Emax” value turned out to be 101 ± 0.8%. Further, the “Psychoactive Effects” value in [3] is given as “Auditory changes, negative experiences, anxiety”. The “5-HT2A β-arrestin Emax” value in test [6] is 64 ± 8%. In addition, in test [7], the “5-HT1A Emax” value worked out at 67 ± 2%.
The EC50 is the concentration at which the effect is half-maximal. `CNCCc1c[nH]c2ccccc12` [Compound 14, N-methyltryptamine]: in test [6], the EC50 was > 10 µM and the “5-HT2A β-arrestin recruitment activity (in words)” value was “inactive”. Further, in test [7], the EC50 was > 10 µM.
With `CC(N)Cc1c[nH]c2ccccc12` (stereo not drawn) [Compound 13], the “Psychoactive Effects” value in [3] is “Psychedelic but varied, fast/slow onset, good/bad experiences, long lasting, no visuals, speed-like, tachycardia, jaw clenching”.
As to `CC(C)N(C)CCc1c[nH]c2ccccc12` [Compound 23], the “5-HT2A Emax” value in test [2] is given as 74 ± 5%. In test [3], the “Psychoactive Effects” value is given as “Mild hallucinations, stimulant, fast onset, psychedelic”. Besides, the “5-HT uptake inhibitor activity at SERT (in words)” value in test [5] is “totally inactive”.
With `COc1ccc2[nH]cc(CCN(C)C(C)C)c2c1` [Compound 2, N-isopropyl-N-methyl-5-methoxytryptamine], the IC50 in [1], in [4] and in test [5] was > 10 µM each time. Besides, in test [2], the “5-HT2A agonist activity in calcium mobilization assay (in words)” value is reported as “low nanomolar potency”. For the same compound, the Emax turned out to be 101 ± 3% in test [2] and 82 ± 13% in [6]. For the same compound, the “Psychoactive Effects” value in [3] is “Fast onset, stimulates conceptual thought, depersonalization”. For the same compound, the EC50 in test [6] was 0.566 ± 0.11 µM; in [7], > 10 µM. In test [5], the “5-HT uptake inhibitor activity at SERT (in words)” value was “totally inactive”.
On to `CCNCCc1c[nH]c2ccc(OC)cc12` [Compound 18, 5-methoxy-N-ethyltryptamine], for which the EC50 is 0.284 ± 0.0416 µM in test [8]; > 10 µM in test [9]; 0.568 ± 0.174 µM in test [6]; > 10 µM in test [10]; 0.262 ± 0.027 µM in test [7]. In addition, the “5-HT releasing activity at SERT (in words)” value (shortened to “5-HT releasing activity”) in test [8] was “releasers”. The Emax in test [2] came out at 112 ± 3%; in [6] it was 103 ± 12%. Further, the “5-HT2A β-arrestin recruitment activity (in words)” value in test [6] is “fully efficacious”.
Turning to `CC(C)N(CCc1c[nH]c2ccccc12)C(C)C` [Compound 22], the “5-HT2A Emax” value in [2] is 110 ± 2%. For the same compound, in test [3], the “Psychoactive Effects” value is on record as “Auditory, not visual, heard voices, sounds had “golden spikes”, religious overtones”.
On to `CN(C)CCc1c[nH]c2ccc(O)cc12` [Compound 16, N,N-dimethyl-5-hydroxytryptamine], for which, in [3], the “Psychoactive Effects” value was “Some visuals (lines and dots), tightness in chest, nausea, breathing issues, mind feels crowded”. Moreover, the results for the EC50 in test [9], in test [10] and in test [7] were > 10 µM, > 10 µM and 0.366 ± 0.067 µM, respectively.
`NCCc1c[nH]c2ccccc12` [Compound 12, Tryptamine]: the “5-HT releasing activity” value in [8] was “releasers”. Also, the “Psychoactive Effects” value in test [3] was “Psychoactive, short acting due to metabolism, increased blood pressure, similar to LSD”. In addition, the Emax in test [6] stood at 108 ± 16%.
`CNCCc1c[nH]c2ccc(OC)cc12` [Compound 17]: the “5-HT releasing activity” value in test [8] was “releasers”. For the same compound, the “5-HT2A Emax” value in [2] is 84 ± 20%. Besides, the “5-HT2A β-arrestin Emax” value in test [6] is recorded as 66 ± 9%. For the same compound, in test [7], the “5-HT1A Emax” value amounted to 72 ± 4%.
As to `CCCN(CCC)CCc1c[nH]c2ccc(OC)cc12` [Compound 28], in test [2], the “5-HT2A agonist activity in calcium mobilization assay (in words)” value is “low nanomolar potency” and the “5-HT2A Emax” value came to 101 ± 3%. Besides, the “Psychoactive Effects” value in [3] is “Comfortable at low doses, oscillating good and bad sounds, negative side dominated as buzz continues”. Besides, the “5-HT2A β-arrestin Emax” value in [6] is 68 ± 2%. Also, the “5-HT1A Emax” value in test [7] came out at 43 ± 5%.
In the case of `CN(C)CCc1c[nH]c2ccccc12` [Compound 6, N,N-dimethyltryptamine], the EC50 in test [8] was 0.114 ± 0.015 µM; in test [9] it was > 10 µM; in test [6], > 10 µM; in [10], 4.17 ± 0.317 µM. Further, the Emax in test [2] was found to be 83 ± 0.4%. The “Psychoactive Effects” value in [3] was “Heavy intoxicant and hallucinogen, visuals, intense colors”. Moreover, in test [6], the “5-HT2A β-arrestin recruitment activity (in words)” value is “inactive”.
As to `COc1ccc2[nH]cc(CCNC(C)C)c2c1` [Compound 27], in [2], the “5-HT2A agonist activity in calcium mobilization assay (in words)” value was “low nanomolar potency” and the “5-HT2A Emax” value came to 101 ± 2%. Also, the “5-HT2A β-arrestin Emax” value in test [6] was determined as 99 ± 6%.
Take `CC(C)NCCc1c[nH]c2ccccc12` [Compound 20]: the “5-HT2A Emax” value in test [2] is 96 ± 3%. The “Psychoactive Effects” value in [3] is given as “Light-headed intoxicant, pleasant buzz”.
Take `COc1ccc2[nH]cc(CCN)c2c1` [Compound 25]: the “Psychoactive Effects” value in test [3] is on record as “Not particularly active, possibly due to metabolism similar to 12”. In [7], the “5-HT1A Emax” value is 66 ± 4%.
As to `COc1ccc2[nH]cc(CCN(C(C)C)C(C)C)c2c1` [Compound 1, N,N-diisopropyl-5-methoxytryptamine], the IC50 in test [1] is > 10 µM; in [4], > 10 µM; in test [5] it was 0.646 ± 0.048 µM. For the same compound, the “5-HT2A agonist activity in calcium mobilization assay (in words)” value in test [2] is recorded as “low nanomolar potency”. Besides, the values for the Emax in test [2] and in [6] were 109 ± 5% and 124 ± 12%, respectively. Moreover, the “Psychoactive Effects” value in test [3] is “Erotic, senses distorted, short-lived, could not make intuitive leaps”. In addition, the EC50 in [7] was > 10 µM.
For `CCCN(CCC)CCc1c[nH]c2ccccc12` [Compound 21], the “5-HT2A Emax” value in test [2] worked out at 97 ± 3%. In [3], the “Psychoactive Effects” value is given as “Intensely visual, long lasting, things appear fast, religious experiences”. Also, the “5-HT2A β-arrestin Emax” value in [6] came to 63 ± 8%.
On to `COc1ccc2[nH]cc(CCN(C)C)c2c1` [Compound 7, N,N-dimethyl-5-methoxytryptamine], for which the IC50 is > 10 µM in test [1], > 10 µM in test [4] and 2.18 ± 0.222 µM in test [5]. For the same compound, the “5-HT2A agonist activity in calcium mobilization assay (in words)” value in test [2] was “low nanomolar potency”. Moreover, the Emax in test [2] came to 101 ± 4%; in [6] it was 56 ± 6%. For the same compound, in test [3], the “Psychoactive Effects” value is “Time distortions, stoned feeling, hallucinogenic at high doses”. The “5-HT1A Emax” value in test [7] is 68 ± 3%.
With `CCN(CC)CCc1c[nH]c2ccccc12` [Compound 19], the “5-HT2A Emax” value in test [2] turned out to be 90 ± 6%. Besides, the “Psychoactive Effects” value in [3] was “Psychoactive, visuals, vertigo”. For the same compound, the “Fold more potent at SERT uptake inhibition than 5-MeO-DET” value in [5] (DET versus 5-MeO-DET (26)) turned out to be 10 fold.
